The values below come from ChEMBL document CHEMBL1140509, “Rynaxypyr: a new insecticidal anthranilic diamide that acts as a potent and selective ryanodine receptor activator” (Bioorg Med Chem Lett, 2007).

Structures are written as SMILES. Converted amounts (≈) assume the structure as drawn. “And” between values parts separate entries of the source, which are not always exact repeats. Identical values can stand only once. The source made the active and inactive calls. The calls are words filed in the database; no cut-off is given here.

Data set [1] is described as follows: Activation of Heliothis virescens recombinant ryanodine receptor expressed in Sf9 cells assessed as induction of calcium mobilization.
A short description of data set [2]: Toxicity in po dosed rat. The format is organism-based. The note with it: in vivo.
The subject of the next data set is Oryctolagus cuniculus. Briefly: Toxicity in rabbit above 1000 mg/kg/day. The format is organism-based. The note with it: in vivo.
In data set [3] the target is T1, Ryanodine receptor 2 (Homo sapiens, UniProt Q92736). Briefly: Activation of ryanodine receptor in human IMR32 cells assessed as induction of calcium mobilization at 100 uM. In kind it is cell-based. The following applies: IMR-32. On the technique in general: Calcium assays in cells follow changes in intracellular calcium, usually with a dye or a luminescent sensor.
T1 sequence (Q92736 whole entry): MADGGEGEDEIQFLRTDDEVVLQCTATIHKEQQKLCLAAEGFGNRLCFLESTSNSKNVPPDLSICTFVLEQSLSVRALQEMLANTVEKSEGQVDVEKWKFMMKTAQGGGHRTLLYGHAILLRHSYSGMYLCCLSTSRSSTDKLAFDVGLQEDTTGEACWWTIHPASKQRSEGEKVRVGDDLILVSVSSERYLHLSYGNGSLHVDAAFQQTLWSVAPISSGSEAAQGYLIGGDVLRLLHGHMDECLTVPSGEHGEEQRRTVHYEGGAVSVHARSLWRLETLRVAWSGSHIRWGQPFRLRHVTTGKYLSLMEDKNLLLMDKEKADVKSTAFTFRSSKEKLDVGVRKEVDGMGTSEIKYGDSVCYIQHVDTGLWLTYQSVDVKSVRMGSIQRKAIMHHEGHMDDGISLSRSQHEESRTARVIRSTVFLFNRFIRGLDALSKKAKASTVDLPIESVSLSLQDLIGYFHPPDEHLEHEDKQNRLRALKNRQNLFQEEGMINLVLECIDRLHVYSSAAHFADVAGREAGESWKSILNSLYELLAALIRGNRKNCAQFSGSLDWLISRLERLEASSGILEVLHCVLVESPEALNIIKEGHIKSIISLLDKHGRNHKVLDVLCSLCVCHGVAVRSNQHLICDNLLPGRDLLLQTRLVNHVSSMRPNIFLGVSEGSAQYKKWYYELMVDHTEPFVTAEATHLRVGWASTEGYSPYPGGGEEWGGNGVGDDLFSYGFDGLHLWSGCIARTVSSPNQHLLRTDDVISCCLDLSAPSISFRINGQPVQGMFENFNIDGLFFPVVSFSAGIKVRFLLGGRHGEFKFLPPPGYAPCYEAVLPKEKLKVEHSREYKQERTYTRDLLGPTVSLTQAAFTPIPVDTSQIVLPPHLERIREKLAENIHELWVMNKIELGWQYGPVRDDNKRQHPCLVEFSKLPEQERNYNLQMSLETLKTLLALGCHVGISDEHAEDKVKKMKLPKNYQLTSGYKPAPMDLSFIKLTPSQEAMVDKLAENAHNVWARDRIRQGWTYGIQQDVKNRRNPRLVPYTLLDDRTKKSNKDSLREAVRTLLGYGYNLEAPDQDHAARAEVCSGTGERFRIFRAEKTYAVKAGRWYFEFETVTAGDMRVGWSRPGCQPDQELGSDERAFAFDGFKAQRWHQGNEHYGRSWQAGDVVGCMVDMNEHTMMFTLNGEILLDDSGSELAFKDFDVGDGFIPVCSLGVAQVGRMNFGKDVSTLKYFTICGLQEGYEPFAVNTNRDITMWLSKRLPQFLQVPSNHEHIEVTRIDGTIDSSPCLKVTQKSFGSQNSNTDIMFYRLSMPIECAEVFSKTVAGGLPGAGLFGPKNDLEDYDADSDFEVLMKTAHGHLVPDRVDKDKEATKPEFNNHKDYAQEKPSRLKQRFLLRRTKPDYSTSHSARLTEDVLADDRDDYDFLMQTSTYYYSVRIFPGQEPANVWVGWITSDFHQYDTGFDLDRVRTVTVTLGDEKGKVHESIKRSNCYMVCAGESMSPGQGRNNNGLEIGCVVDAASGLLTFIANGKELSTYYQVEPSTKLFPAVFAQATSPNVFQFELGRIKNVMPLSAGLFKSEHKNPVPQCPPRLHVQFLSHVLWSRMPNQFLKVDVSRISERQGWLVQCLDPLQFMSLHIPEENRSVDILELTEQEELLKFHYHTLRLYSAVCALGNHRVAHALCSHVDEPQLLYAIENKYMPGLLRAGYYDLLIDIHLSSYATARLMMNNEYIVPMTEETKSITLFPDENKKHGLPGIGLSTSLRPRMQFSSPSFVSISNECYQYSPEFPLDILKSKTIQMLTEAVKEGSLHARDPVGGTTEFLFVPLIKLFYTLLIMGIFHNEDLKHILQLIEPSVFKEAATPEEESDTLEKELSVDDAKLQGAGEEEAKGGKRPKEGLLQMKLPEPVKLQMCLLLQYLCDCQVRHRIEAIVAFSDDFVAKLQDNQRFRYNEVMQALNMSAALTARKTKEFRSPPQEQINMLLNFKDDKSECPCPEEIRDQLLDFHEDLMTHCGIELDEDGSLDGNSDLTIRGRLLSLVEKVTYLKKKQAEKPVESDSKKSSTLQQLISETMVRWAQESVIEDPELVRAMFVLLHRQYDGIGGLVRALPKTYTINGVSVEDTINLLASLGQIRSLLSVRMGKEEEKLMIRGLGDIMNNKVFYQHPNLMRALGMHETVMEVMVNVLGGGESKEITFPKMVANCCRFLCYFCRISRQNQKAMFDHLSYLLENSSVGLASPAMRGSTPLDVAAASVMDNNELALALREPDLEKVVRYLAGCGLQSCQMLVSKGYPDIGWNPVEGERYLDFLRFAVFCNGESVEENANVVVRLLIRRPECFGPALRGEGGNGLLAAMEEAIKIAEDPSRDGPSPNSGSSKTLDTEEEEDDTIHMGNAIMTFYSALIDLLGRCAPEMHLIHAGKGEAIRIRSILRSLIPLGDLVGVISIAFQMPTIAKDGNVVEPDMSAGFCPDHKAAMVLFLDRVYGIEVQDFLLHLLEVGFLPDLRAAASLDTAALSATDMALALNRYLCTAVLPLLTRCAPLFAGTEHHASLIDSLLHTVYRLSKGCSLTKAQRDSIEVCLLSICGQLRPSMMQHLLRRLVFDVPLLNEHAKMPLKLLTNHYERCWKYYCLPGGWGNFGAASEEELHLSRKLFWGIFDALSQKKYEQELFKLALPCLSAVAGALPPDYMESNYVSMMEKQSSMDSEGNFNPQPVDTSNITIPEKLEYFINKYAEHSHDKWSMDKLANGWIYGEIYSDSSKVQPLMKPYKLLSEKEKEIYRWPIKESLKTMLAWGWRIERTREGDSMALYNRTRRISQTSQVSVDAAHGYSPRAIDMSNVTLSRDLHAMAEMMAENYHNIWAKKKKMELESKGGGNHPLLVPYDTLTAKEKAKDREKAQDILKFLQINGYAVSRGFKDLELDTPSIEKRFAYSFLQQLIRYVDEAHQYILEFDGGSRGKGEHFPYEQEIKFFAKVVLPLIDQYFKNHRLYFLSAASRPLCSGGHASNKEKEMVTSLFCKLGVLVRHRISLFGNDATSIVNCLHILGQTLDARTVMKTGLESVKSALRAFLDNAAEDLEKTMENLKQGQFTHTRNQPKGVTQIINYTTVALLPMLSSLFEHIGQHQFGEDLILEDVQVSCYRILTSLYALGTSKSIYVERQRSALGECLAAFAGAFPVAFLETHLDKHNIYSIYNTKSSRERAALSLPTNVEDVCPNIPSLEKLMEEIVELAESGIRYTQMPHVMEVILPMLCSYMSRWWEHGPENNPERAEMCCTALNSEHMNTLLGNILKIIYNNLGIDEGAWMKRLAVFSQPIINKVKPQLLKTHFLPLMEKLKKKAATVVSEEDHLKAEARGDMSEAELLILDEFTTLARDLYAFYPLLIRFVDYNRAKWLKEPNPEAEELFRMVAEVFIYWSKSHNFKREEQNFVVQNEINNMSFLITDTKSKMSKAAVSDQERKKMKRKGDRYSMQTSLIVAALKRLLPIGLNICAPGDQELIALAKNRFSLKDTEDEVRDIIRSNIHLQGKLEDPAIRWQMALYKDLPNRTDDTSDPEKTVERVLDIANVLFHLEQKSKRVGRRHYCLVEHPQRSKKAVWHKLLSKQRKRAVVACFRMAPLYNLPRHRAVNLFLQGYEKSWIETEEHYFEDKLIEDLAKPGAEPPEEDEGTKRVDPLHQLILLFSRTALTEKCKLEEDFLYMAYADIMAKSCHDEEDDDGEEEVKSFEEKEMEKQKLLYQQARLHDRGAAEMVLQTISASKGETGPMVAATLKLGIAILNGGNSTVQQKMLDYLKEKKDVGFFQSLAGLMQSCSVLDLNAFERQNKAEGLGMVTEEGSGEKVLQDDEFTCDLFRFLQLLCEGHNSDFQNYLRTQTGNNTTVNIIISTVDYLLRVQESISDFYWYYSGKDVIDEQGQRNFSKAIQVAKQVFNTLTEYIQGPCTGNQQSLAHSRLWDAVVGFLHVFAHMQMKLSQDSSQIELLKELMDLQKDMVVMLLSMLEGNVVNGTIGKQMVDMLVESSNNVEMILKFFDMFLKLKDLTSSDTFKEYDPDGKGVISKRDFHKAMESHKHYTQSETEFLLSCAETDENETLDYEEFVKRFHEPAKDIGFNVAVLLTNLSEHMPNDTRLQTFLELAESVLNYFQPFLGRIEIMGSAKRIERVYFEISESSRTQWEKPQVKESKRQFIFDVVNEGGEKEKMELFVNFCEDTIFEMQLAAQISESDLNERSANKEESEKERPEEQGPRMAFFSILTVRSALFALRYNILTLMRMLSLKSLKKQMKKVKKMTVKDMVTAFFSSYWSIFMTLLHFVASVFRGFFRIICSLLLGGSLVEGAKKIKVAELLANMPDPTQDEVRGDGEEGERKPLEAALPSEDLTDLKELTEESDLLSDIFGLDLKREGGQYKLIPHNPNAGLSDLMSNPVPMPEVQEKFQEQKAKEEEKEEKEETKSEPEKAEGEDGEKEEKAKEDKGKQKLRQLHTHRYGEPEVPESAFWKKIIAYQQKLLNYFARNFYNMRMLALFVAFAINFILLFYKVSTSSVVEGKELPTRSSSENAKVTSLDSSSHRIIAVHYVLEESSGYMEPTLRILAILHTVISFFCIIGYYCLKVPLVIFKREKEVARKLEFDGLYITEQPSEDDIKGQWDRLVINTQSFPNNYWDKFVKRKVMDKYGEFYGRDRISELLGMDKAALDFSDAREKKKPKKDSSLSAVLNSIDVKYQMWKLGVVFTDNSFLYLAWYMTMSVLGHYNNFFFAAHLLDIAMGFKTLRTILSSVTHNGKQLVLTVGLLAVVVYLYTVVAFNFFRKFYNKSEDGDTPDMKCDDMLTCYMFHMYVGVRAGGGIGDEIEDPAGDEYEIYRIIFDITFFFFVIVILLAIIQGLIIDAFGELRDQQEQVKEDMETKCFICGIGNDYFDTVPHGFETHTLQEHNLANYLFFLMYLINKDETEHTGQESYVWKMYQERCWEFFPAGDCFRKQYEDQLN

Data set [4] in a line: Activation of ryanodine receptor in mouse C2C12 cells assessed as induction of calcium mobilization. The format is cell-based.
The next data set concerns Heliothis virescens. Nature of the data set: Insecticidal activity against Heliothis virescens. In kind it is functional.
The next data set concerns Plutella xylostella. Briefly: Insecticidal activity against Plutella xylostella. In kind it is functional.
A further data set deals with Spodoptera frugiperda. Briefly: Insecticidal activity against Spodoptera frugiperda. In kind it is functional.
The next data set concerns the target Ryanodine receptor (Drosophila melanogaster, UniProt Q24498). Nature of the data set: Activation of Drosophila melanogaster ryanodine receptor in Sf9 cells assessed as induction of calcium mobilization. In kind it is cell-based.
Data set [5] can be described thus: Activation of ryanodine receptor in rat PC12 cells assessed as induction of calcium mobilization. The format is cell-based. The following applies: PC-12.
For a further data set, the system named is PC-12. Nature of the data set: Activation of ryanodine receptor in rat PC12 cells assessed as induction of calcium mobilization at 100 uM. The format is cell-based.
For data set [6], the target named is T1, Ryanodine receptor 2. Nature of the data set: Activation of ryanodine receptor in human IMR32 cells assessed as induction of calcium mobilization. The format is cell-based, IMR-32.
The test system of a further data set is Rattus norvegicus. Briefly: Toxicity in rat above 1000 mg/kg/day. The format is organism-based. The following applies: in vivo.

In general, EC50 refers to the midpoint of the concentration-response curve. In general, LD50 refers to the dose expected to kill half of the subjects tested. Read a high LD50 as a less toxic substance. In general, LC50 refers to the concentration lethal to half of the exposed cells or organisms. `CNC(=O)c1cc(Cl)cc(C)c1NC(=O)c1cc(Br)nn1-c1ncccc1Cl` [CHLORANTRANILIPROLE]: the EC50 was 52 nM and 50 nM in [1]; 14000 nM in [4]; 40 nM at Ryanodine receptor; more than 100000 nM in data set [5]; more than 100000 nM at Ryanodine receptor 2 [6]. In data set [2], this molecule gave an LD50 of more than 5000 mg/kg. In addition, the Activity result is “Non-toxic” in the data set with Oryctolagus cuniculus, 20% with PC-12 and “Non-toxic” with Rattus norvegicus. Besides, at Ryanodine receptor 2 [3], the result was inactive. Moreover, the LC50 with Heliothis virescens worked out at 0.04 µg/mL (≈ 0.0828 µM); in the data set on Plutella xylostella, 0.02 µg/mL (≈ 0.0414 µM); in the data set with Spodoptera frugiperda it was 0.02 µg/mL (≈ 0.0414 µM).
For the molecule `CNC(=O)c1cc(Cl)cc(C)c1NC(=O)c1cc(Cl)nn1-c1ncccc1Cl`, in data set [1], the EC50 was 69 nM. In addition, the LC50 is 0.07 µg/mL (≈ 0.16 µM) in the data set with Heliothis virescens, 0.03 µg/mL (≈ 0.0684 µM) in the data set on Plutella xylostella and 0.03 µg/mL (≈ 0.0684 µM) in the data set on Spodoptera frugiperda.
Consider `CNC(=O)c1cc(Cl)cc(C)c1NC(=O)c1cc(C(F)(F)F)nn1-c1ncccc1Cl`, for which, in data set [1], the EC50 worked out at 73 nM. Besides, the LC50 stood at 0.05 µg/mL (≈ 0.106 µM) with Heliothis virescens, 0.01 µg/mL (≈ 0.0212 µM) in the data set on Plutella xylostella and 0.02 µg/mL (≈ 0.0424 µM) in the data set on Spodoptera frugiperda.
For the molecule `CNC(=O)c1cc(I)cc(C)c1NC(=O)c1cc(C(F)(F)F)nn1-c1ncccc1Cl`, in [1], the EC50 is 205 nM. The figures for the median lethal concentration (LC50) in the data set on Heliothis virescens, with Plutella xylostella and in the data set on Spodoptera frugiperda were 0.21 µg/mL (≈ 0.373 µM), 0.1 µg/mL (≈ 0.177 µM) and 0.26 µg/mL (≈ 0.461 µM), respectively.
The matching figures for `CNC(=O)c1cc(I)cc(C)c1NC(=O)c1cc(Br)nn1-c1ncccc1Cl`: 118 nM, 0.16 µg/mL (≈ 0.278 µM), 0.07 µg/mL (≈ 0.122 µM) and 0.13 µg/mL (≈ 0.226 µM).
The matching figures for `CNC(=O)c1cc(Cl)cc(C)c1NC(=O)c1cc(OC)nn1-c1ncccc1Cl`: 101 nM, 2.43 µg/mL (≈ 5.6 µM), 0.33 µg/mL (≈ 0.76 µM) and 0.68 µg/mL (≈ 1.57 µM).
On to `Cc1cc(Cl)cc(C(=O)NC(C)C)c1NC(=O)c1cc(OC(F)F)nn1-c1ncccc1Cl`, for which the EC50 in data set [1] was found to be 511 nM. Moreover, the LC50 in the data set with Heliothis virescens came to 0.12 µg/mL (≈ 0.241 µM); in the data set on Plutella xylostella it was 0.1 µg/mL (≈ 0.201 µM); in the data set with Spodoptera frugiperda it was 0.14 µg/mL (≈ 0.281 µM).
Consider `CNC(=O)c1cc(C(F)(F)F)cc(C)c1NC(=O)c1cc(C(F)(F)F)nn1-c1ncccc1Cl`, for which the values for the LC50 with Heliothis virescens, in the data set on Plutella xylostella and with Spodoptera frugiperda were 0.66 µg/mL (≈ 1.3 µM), 0.09 µg/mL (≈ 0.178 µM) and 0.53 µg/mL (≈ 1.05 µM), respectively.
As for `CNC(=O)c1cc(Cl)cc(C)c1NC(=O)c1cc(OC(F)F)nn1-c1ncccc1Cl`, in data set [1], the EC50 was 60 nM. The LC50 in the data set with Heliothis virescens stood at 1.08 µg/mL (≈ 2.3 µM); with Plutella xylostella, 0.38 µg/mL (≈ 0.808 µM); with Spodoptera frugiperda it was 0.21 µg/mL (≈ 0.447 µM).
The matching figures for `CNC(=O)c1cc(Br)cc(C)c1NC(=O)c1cc(Br)nn1-c1ncccc1Cl`: 63 nM, 0.11 µg/mL (≈ 0.208 µM), 0.06 µg/mL (≈ 0.114 µM) and 0.18 µg/mL (≈ 0.341 µM).
The like results for `Cc1cc(Cl)cc(C(=O)NC(C)C)c1NC(=O)c1cc(C(F)(F)F)nn1-c1ncccc1Cl` were, in that order, 1830 nM, 0.02 µg/mL (≈ 0.04 µM), 0.01 µg/mL (≈ 0.02 µM) and 0.03 µg/mL (≈ 0.06 µM).
As to `Cn1c(=O)c2c(ncn2C)n(C)c1=O`, the Activity entry on Ryanodine receptor 2 [6] (IMR-32) is “Dose-dependent effect”.
In the case of `Cc1cc(Br)cc(C(=O)NC(C)C)c1NC(=O)c1cc(C(F)(F)F)nn1-c1ncccc1Cl`, in data set [1], the EC50 turned out to be 1570 nM. The LC50 is 0.03 µg/mL (≈ 0.0551 µM) with Heliothis virescens, 0.01 µg/mL (≈ 0.0184 µM) in the data set on Plutella xylostella and 0.03 µg/mL (≈ 0.0551 µM) with Spodoptera frugiperda.
Take `CNC(=O)c1cc(Cl)cc(C)c1NC(=O)c1cc(OCC(F)(F)F)nn1-c1ncccc1Cl`: in data set [1], the EC50 amounted to 240 nM. The median lethal concentration (LC50) in the data set on Heliothis virescens came to 0.24 µg/mL (≈ 0.478 µM); with Plutella xylostella it was 0.04 µg/mL (≈ 0.0796 µM); in the data set on Spodoptera frugiperda, 0.11 µg/mL (≈ 0.219 µM).
The matching figures for `Cc1cc(Cl)cc(C(=O)NC(C)C)c1NC(=O)c1cc(OCC(F)(F)F)nn1-c1ncccc1Cl`: 2730 nM, 0.09 µg/mL (≈ 0.17 µM), 0.01 µg/mL (≈ 0.0189 µM) and 0.03 µg/mL (≈ 0.0566 µM).
With `COc1cc(C(=O)Nc2c(C)cc(Cl)cc2C(=O)NC(C)C)n(-c2ncccc2Cl)n1`, the EC50 in [1] turned out to be 387 nM. Further, the values for the LC50 in the data set on Heliothis virescens, in the data set on Plutella xylostella and in the data set with Spodoptera frugiperda were 1.14 µg/mL (≈ 2.47 µM), 0.18 µg/mL (≈ 0.389 µM) and 0.3 µg/mL (≈ 0.649 µM), respectively.
The like results for `Cc1cc(Cl)cc(C(=O)NC(C)C)c1NC(=O)c1cc(Cl)nn1-c1ncccc1Cl` were, in that order, 270 nM, 0.05 µg/mL (≈ 0.107 µM), 0.09 µg/mL (≈ 0.193 µM) and 0.05 µg/mL (≈ 0.107 µM).
Consider `Cc1cc(C(F)(F)F)cc(C(=O)NC(C)C)c1NC(=O)c1cc(C(F)(F)F)nn1-c1ncccc1Cl`, for which the EC50 in data set [1] worked out at 3700 nM. The LC50 was 0.11 µg/mL (≈ 0.206 µM) in the data set with Heliothis virescens, 0.07 µg/mL (≈ 0.131 µM) in the data set on Plutella xylostella and 0.39 µg/mL (≈ 0.731 µM) in the data set with Spodoptera frugiperda.
The matching figures for `Cc1cc(Cl)cc(C(=O)NC(C)C)c1NC(=O)c1cc(Br)nn1-c1ncccc1Cl`: 458 nM, 0.02 µg/mL (≈ 0.0391 µM), 0.04 µg/mL (≈ 0.0782 µM) and 0.04 µg/mL (≈ 0.0782 µM).
